Test results as given in patent US20260103455A1, “ULK3 INHIBITORS AND USES THEREOF” (H. LEE MOFFITT CANCER CENTER AND RESEARCH INSTITUTE, INC., priority 2022, published 2026).
“And” between values parts separate entries of the source, which are not always exact repeats. Equal values may be shown once. Where a name gives a salt, the structure may show the parent alone.

What was measured:
ULK3 = target: T1, ULK3 (Homo sapiens, UniProt Q6PHR2); assay: DSF (ULK3) thermal shift; assay type: binding
T1 sequence (Q6PHR2 1-472): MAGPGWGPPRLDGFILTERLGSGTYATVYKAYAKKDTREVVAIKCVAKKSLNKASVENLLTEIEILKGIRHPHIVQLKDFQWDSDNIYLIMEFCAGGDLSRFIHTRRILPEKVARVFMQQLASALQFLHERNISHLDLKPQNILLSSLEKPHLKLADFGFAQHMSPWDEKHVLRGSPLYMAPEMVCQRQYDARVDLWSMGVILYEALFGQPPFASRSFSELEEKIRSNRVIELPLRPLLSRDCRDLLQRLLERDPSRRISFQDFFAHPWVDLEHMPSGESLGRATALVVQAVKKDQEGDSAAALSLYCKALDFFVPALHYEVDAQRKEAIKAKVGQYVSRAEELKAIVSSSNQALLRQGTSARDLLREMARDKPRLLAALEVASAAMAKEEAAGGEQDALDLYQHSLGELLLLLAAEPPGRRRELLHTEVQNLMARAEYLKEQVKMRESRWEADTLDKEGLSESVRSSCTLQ

JAK2 [1] = target: T2, JAK2 (Homo sapiens, UniProt O60674); assay: IC50 for JAK2, Reaction Biology kinase assay (32P Hotspot assay); assay type: biochemical
T2 sequence (O60674 whole entry): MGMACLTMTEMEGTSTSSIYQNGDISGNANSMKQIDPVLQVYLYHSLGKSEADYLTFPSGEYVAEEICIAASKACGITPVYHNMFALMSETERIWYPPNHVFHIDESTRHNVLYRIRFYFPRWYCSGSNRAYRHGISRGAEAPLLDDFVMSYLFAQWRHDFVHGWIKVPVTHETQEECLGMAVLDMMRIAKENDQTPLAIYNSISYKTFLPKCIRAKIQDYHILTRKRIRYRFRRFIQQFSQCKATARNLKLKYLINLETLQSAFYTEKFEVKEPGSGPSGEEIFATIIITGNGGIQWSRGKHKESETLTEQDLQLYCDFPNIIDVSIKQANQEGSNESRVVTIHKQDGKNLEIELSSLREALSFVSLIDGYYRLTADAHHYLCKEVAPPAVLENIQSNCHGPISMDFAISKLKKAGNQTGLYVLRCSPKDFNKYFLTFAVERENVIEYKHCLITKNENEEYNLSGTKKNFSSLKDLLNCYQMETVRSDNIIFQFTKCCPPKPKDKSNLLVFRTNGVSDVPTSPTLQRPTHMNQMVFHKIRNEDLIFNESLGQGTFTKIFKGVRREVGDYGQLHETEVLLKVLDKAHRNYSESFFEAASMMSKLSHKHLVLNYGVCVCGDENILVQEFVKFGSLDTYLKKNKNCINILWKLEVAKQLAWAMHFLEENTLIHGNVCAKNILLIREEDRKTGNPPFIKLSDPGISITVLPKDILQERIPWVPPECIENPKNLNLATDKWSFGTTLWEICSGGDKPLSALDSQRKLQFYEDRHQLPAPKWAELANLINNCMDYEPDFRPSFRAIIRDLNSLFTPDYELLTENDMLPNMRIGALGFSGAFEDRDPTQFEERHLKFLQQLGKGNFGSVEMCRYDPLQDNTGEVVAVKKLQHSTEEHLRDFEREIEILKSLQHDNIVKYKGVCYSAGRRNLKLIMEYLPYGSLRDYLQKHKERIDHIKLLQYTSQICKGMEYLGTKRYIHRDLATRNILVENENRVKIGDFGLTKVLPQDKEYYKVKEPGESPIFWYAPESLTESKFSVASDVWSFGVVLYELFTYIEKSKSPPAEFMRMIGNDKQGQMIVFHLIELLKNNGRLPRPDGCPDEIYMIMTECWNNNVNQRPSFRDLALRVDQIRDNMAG

JAK2 [2] = target: T2, JAK2; assay: DSF (JAK2) thermal shift; assay type: binding

| DSF (ULK3) ΔTm (° C.) (ULK3) | IC50 (JAK2 [1]) | DSF (JAK2) ΔTm (° C.) (JAK2 [2]) | Compound |
| --- | --- | --- | --- |
| 14.3 °C and 10.6 °C and 13.2 °C |  |  | N#CCNC(=O)c1ccc(-c2ccnc(Nc3ccc(N4CCOCC4)cc3)n2)cc1 [Momelotinib (BL4-106), Momelotinib, reference compound] |
| 15.0 °C | < 0.51 nM |  | N#CCNC(=O)c1ccc(-c2nc(Nc3ccc(N4CCOCC4)cc3)nc3[nH]ccc23)cc1 [BL4-139] |
| 5.8 °C |  | 0.1 °C | COC[C@H](Cc1ccccc1)NC(=O)c1ccc(-c2ccnc(Nc3ccc(N4CCOCC4)cc3)n2)cc1 [BR1-012] |
|  |  | 0.5 °C | O=C(NCC(F)(F)F)c1ccc(-c2ccnc(Nc3ccc(N4CCOCC4)c(F)c3)n2)cc1 [BH1-138, 4-(2-((3-Fluoro-4-morpholinophenyl)amino)pyrimidin-4-yl)-N-(2,2,2-trifluoroethyl)benzamide] |
| 11.8 °C |  |  | N#CCNC(=O)c1ccc(-c2nc(Nc3ccc(N4CCOCC4=O)cc3)ncc2Cl)cc1 [GM1-072, 4-(5-Chloro-2-((4-(3-oxomorpholino)phenyl)amino)pyrimidin-4-yl)-N-(cyanomethyl)benzamide] |
| 8.4 °C |  |  | COC[C@H](NC(=O)c1ccc(-c2ccnc(Nc3ccc(N4CCOCC4)cc3)n2)cc1)c1ccccc1 [BR1-038, (R)—N-(2-Methoxy-1-phenylethyl)-4-(2-((4-morpholinophenyl)amino)pyrimidin-4-yl)benzamide] |
|  | 0.745 nM |  | O=C(NCC(F)(F)F)c1ccc(-c2nc(Nc3ccc(N4CCOCC4)cc3)nc3[nH]ccc23)cc1 [RF1-046, 4-(2-((4-Morpholinophenyl)amino)-7H-pyrrolo[2,3-d]pyrimidin-4-yl)-N-(2,2,2-trifluoro-ethyl)benzamide] |
| 11.6 °C |  |  | N#CC(NC(=O)c1ccc(-c2ccnc(Nc3ccc(N4CCOCC4)cc3)n2)cc1)c1ccccc1 (stereo not drawn) [BL4-153, N-(Cyano (phenyl)methyl)-4-(2-((4-morpholinophenyl)amino)pyrimidin-4-yl)benzamide] |
| 10.6 °C |  |  | N#CCNC(=O)c1ccc(-c2nc(Nc3ccc(N4CCOCC4)cc3)ncc2F)cc1 [GM1-034, N-(Cyanomethyl)-4-(5-fluoro-2-((4-morpholinophenyl)amino)pyrimidin-4-yl)benzamide] |
| 8.4 °C |  |  | Cc1cnc(Nc2ccc(N3CCOCC3)cc2)nc1-c1ccc(C(=O)NCC#N)cc1 [GM1-032, N-(Cyanomethyl)-4-(5-methyl-2-((4-(morpholino)phenyl)amino)pyrimidin-4-yl)benzamide] |
| 8.1 °C |  | 5.5 °C | Cc1cnc(Nc2ccc(N3CCOCC3=O)cc2)nc1-c1ccc(C(=O)NCC#N)cc1 [GM1-030, N-(Cyanomethyl)-4-(5-methyl-2-((4-(3-oxomorpholino)phenyl)amino)pyrimidin-4-yl)benzamide] |
| 6.8 °C |  |  | CN1CCC(c2cnc(Nc3nc(-c4ccc(C(=O)NCC#N)cc4)c4cc[nH]c4n3)cc2F)CC1 [RF1-058, N-(Cyanomethyl)-4-(2-((4-fluoro-5-(1-methylpiperidin-4-yl)pyridin-2-yl)amino)-7H-pyrrolo-[2,3-d]pyrimidin-4-yl)benzamide] |
| 10.0 °C |  | 0.1 °C | COc1cc(N2CCOCC2)ccc1Nc1nccc(-c2ccc(C(=O)NCC(F)(F)F)cc2)n1 [BH1-132, 4-(2-((2-Methoxy-4-morpholinophenyl)amino)pyrimidin-4-yl)-N-(2,2,2-trifluoroethyl)benzamide] |
| 8.8 °C |  |  | CN1CCN(c2ccc(Nc3ncc(F)c(-c4ccc(C(=O)NCC#N)cc4)n3)cc2F)CC1 [BH1-095] |
| 7.5 °C |  | 1.3 °C | N#CCNC(=O)c1ccc(-c2ccnc(Nc3ccc(N4CCOCC4=O)cc3)n2)cc1 [BH1-090, N-(Cyanomethyl)-4-(2-((4-(3-oxomorpholino)phenyl)amino)pyrimidin-4-yl)benzamide] |
| 9.1 °C |  |  | O=C(N[C@H](CO)Cc1ccccc1)c1ccc(-c2ccnc(Nc3ccc(N4CCOCC4)cc3)n2)cc1 [BR1-034, (S)—N-(1-Hydroxy-3-phenylpropan-2-yl)-4-(2-((4-morpholinophenyl)amino)pyrimidin-4-yl)benzamide] |
| 14.3 °C and 9.9 °C |  |  | N#CCNC(=O)c1ccc(-c2ccnc(Nc3ccc(N4CCOCC4)cc3)n2)cc1 [BL4-106 HCl salt, reference compound] |
| 11.0 °C and 13.1 °C |  | 6.48 °C | N#CCNC(=O)c1ccc(-c2nc(Nc3ccc(N4CCOCC4)cc3)ncc2Cl)cc1 [GM1-048, 4-(5-Chloro-2-((4-morpholinophenyl)amino)pyrimidin-4-yl)-N-(cyanomethyl)benzamide] |
| 7.9 °C |  | 3.6 °C | CC(C)[C@H](CO)NC(=O)c1ccc(-c2ccnc(Nc3ccc(N4CCOCC4)cc3)n2)cc1 [BH1-063, (R)—N-(1-Hydroxy-3-methylbutan-2-yl)-4-(2-((4-morpholinophenyl)amino)pyrimidin-4-yl)benzamide] |
| 9.8 °C |  |  | COC[C@@H](NC(=O)c1ccc(-c2ccnc(Nc3ccc(N4CCOCC4)cc3)n2)cc1)c1ccccc1 [BR1-036, (S)—N-(2-Methoxy-1-phenylethyl)-4-(2-((4-morpholinophenyl)amino)pyrimidin-4-yl)benzamide] |
| 7.2 °C |  | 4.68 °C | Cc1cnc(Nc2ccc(CN3CCN(C)CC3)cc2)nc1-c1ccc(C(=O)NCC#N)cc1 [BH1-102] |

Second part, the compound before the results:

| Compound | DSF (ULK3) ΔTm (° C.) (ULK3) | IC50 (JAK2 [1]) | DSF (JAK2) ΔTm (° C.) (JAK2 [2]) |
| --- | --- | --- | --- |
| O=C(NCC(F)(F)F)c1ccc(-c2ccnc(Nc3ccc(N4CCOCC4)cc3N3CCOCC3)n2)cc1 [BR1-054] | 1.3 °C |  |  |
| 2-Fluoro-N-methyl-4-((4-(4-((2,2,2-trifluoroethyl)carbamoyl)phenyl)pyrimidin-2-yl) amino)benzamide [BH1-106] | 9.9 °C |  | 0.54 °C |
| CS(=O)(=O)O.Cc1cnc(Nc2ccc(C3CCN(C)CC3)c(F)c2)nc1Nc1ccc(Cl)c(NS(=O)(=O)C(C)(C)C)c1 [MA9-060, reference compound] | 11.9 °C and 12.6 °C |  |  |
| COC(=O)c1ccc(Nc2nccc(-c3ccc(C(=O)NCC(F)(F)F)cc3)n2)cc1F [BH1-104, Methyl 2-fluoro-4-((4-(4-((2,2,2-trifluoroethyl)carbamoyl)phenyl)pyrimidin-2-yl)amino)benzoate] | 6.9 °C |  | 0.05 °C |
| CN1CCN(c2cccc(Nc3nccc(-c4ccc(C(=O)NCC(F)(F)F)cc4)n3)c2)CC1 [BH2-010, 4-(2-((3-(4-Methylpiperazin-1-yl)phenyl)amino)pyrimidin-4-yl)-N-(2,2,2-trifluoroethyl)benzamide] | 14.4 °C |  |  |
| Cc1cnc(Nc2ccc(C(=O)NC3CCN(C)CC3)c(F)c2)nc1Nc1ccc(Cl)c(NS(=O)(=O)C(C)(C)C)c1 [SG3-179, reference compound] | 10.6 °C |  |  |
| N#CCNC(=O)c1ccc(-c2nc(Nc3ccc(N4CCOCC4=O)cc3)ncc2F)cc1 [GM1-036BA2, N-(Cyanomethyl)-4-(5-fluoro-2-((4-(3-oxomorpholino)phenyl)amino)pyrimidin-4-yl)benzamide] | 8.7 °C |  | 1.1 °C |
| O=C(c1ccc(-c2ccnc(Nc3cccc(N4CCOCC4)c3)n2)cc1)N1CCC[C@H]1C(F)(F)F [BR1-048] | 9.3 °C |  |  |
| N#CCNC(=O)c1ccc(-c2ncnc3[nH]ccc23)cc1 [BL4-136] | 5.1 °C |  | 1 °C |
| CN1CCN(c2cc(F)cc(Nc3nccc(-c4ccc(C(=O)N5CCC[C@@H]5C(F)(F)F)cc4)n3)c2)CC1 [BR1-052] | 14.1 °C |  |  |
| CN1CCN(c2cccc(Nc3nccc(-c4ccc(C(=O)N5CCC[C@H]5C(F)(F)F)cc4)n3)c2)CC1 [BH2-013, (S)-(4-(2-((3-(4-Methylpiperazin-1-yl)phenyl)amino)pyrimidin-4-yl)phenyl) (2-(trifluoromethyl)pyrrolidin-1-yl) methanone] | 10.9 °C |  |  |
| CN1CCN(c2cc(F)cc(Nc3nccc(-c4ccc(C(=O)NCC(F)(F)F)cc4)n3)c2)CC1 [BR1-051] | 11.1 °C |  |  |
| CN1CCN(c2cccc(Nc3nccc(-c4ccc(C(=O)N5CCC[C@@H]5C(F)(F)F)cc4)n3)c2)CC1 [BH2-011, (R)-(4-(2-((3-(4-Methylpiperazin-1-yl)phenyl)amino)pyrimidin-4-yl)phenyl) (2-(trifluoromethyl)pyrrolidin-1-yl) methanone] | 14.5 °C and 14.4 °C |  |  |
| CN1CCC(c2ccc(Nc3ncc(F)c(-c4ccc(C(=O)NCC#N)cc4)n3)cc2F)CC1 [GM1-064, N-(Cyanomethyl)-4-(5-fluoro-2-((3-fluoro-4-(1-methylpiperidin-4-yl)phenyl)amino)pyrimidin-yl)benzamide] | 8.0 °C |  | 3.68 °C |
| CN1CCN(c2cc(F)cc(Nc3nccc(-c4ccc(C(=O)N5CCC[C@H]5C(F)(F)F)cc4)n3)c2)CC1 [BR1-053] | 10.5 °C |  |  |
| O=C(NCC(F)(F)F)c1ccc(-c2ccnc(Nc3cccc(N4CCOCC4)c3)n2)cc1 [BR1-045, 4-(2-((3-Morpholinophenyl)amino)pyrimidin-4-yl)-N-(2,2,2-trifluoroethyl)benzamide] | 14.7 °C |  |  |
| O=C(c1ccc(-c2ccnc(Nc3cccc(N4CCOCC4)c3)n2)cc1)N1CCC[C@@H]1C(F)(F)F [BR1-047] | 13.4 °C |  |  |
